Measurements taken from patent publication US11571413B2, “Nicotinamide riboside treatments of domesticated meat animals” (Kansas State University Research Foundation, priority 2017, dated 2023).
Marks after values point to notes of the source that are not given here.

Tested on: Fertilized Cobb 500 broiler eggs
Assay: In ovo NR dose, time course of body and pectoralis major morphometrics at E15, E19, hatch (second Example VI)
Assay type: in vivo, chicken
Description: Fertilized Cobb 500 broiler eggs (N=247; Cobb Vantress, Siloam Springs, Ark.) were transported to Kansas State University Muscle Biology Laboratory (Manhattan, Kans.), egg weights were recorded, and within each 4 egg strata eggs were randomly assigned to an NR treatment (0 mM, 250 mM, 500 mM, or 1 M NR). After treatment allocation, eggs were put onto trays and placed in a Sportsman 1502 incubator (GQF Manufacturing Company Inc., Savannah, Ga.) set to operate at 37° C. and 40±4% relative humidity. Trays were rotated hourly to reposition eggs and egg weights were recorded daily to determine percentage weight loss with a standard daily weight loss ranging from 0.65% to 0.75%.
At d 10 of incubation, the methods of Gonzalez and Jackson (2020) were followed for treatment administration. Eggs were briefly removed from the incubator and prior to injection, the injection site was cleaned with 70% ethanol. […] of 0.9% sterile saline was injected into yolk sac of each egg with a 2.54-cm, 20-guage injection needle inserted approximately 1-cm into injection site. The injection site was covered with a 1-cm^2 portion of medical tape (Nexcare; 3M, Maplewood, Minn.) and placed back into the incubator under the conditions described above. At d 18 of incubation, egg were removed from their trays, placed in hatching boxes, and the humidity of the incubator was increased to 60±2%.
At three time points, E (i.e., embryonic day 15, day 15 after the beginning of incubation), E19, and 24 hours post-hatching, embryos and chicks were euthanized by exposure to CO2 and decapitation. Crown to rump length (CR), head width and head length were measured by calipers (Traceable Digital Calipers; Fisher Scientific, Pittsburg, Pa.). Head and chest circumference were collected by curling a string around the target area and measuring the length of the curled string by a ruler. Chicks chest were sprayed with 70% ethanol, were skinned to expose the PMM, and chest width and length were measured by calipers. Both sides of the PMM were removed and the left side was weighed, followed by length, width, and thickness measurement collection. Following measurement collection, the left PMM was submerged in optimal cutting temperature tissue freezing medium compound, slowly frozen at −20° C. for 1 h, and stored at −80° C. until cryosectioning. The right side of PMM was stored in a 1.5 ml microcentrifuge tube and stored at −80° C. until NAD+ analysis. At last, the heart and liver of each chick were removed, weighed, and discarded.

[1] = 250 mM NR into yolk sac d 10, E15 embryos
[2] = 250 mM NR into yolk sac d 10, E19 embryos
[3] = 250 mM NR into yolk sac d 10, hatched chicks
[4] = 500 mM NR into yolk sac d 10, E15 embryos
[5] = 500 mM NR into yolk sac d 10, E19 embryos
[6] = 500 mM NR into yolk sac d 10, hatched chicks
[7] = 1,000 mM NR into yolk sac d 10, E15 embryos
[8] = 1,000 mM NR into yolk sac d 10, E19 embryos
[9] = 1,000 mM NR into yolk sac d 10, hatched chicks
[10] = E19 embryos, 250 to 1,000 mM NR

NC(=O)c1ccc[n+]([C@@H]2O[C@H](CO)[C@@H](O)[C@H]2O)c1 [Nicotinamide riboside, nicotinamide riboside]
Body weight [1]: 14.5 g
Crown-rump length [1]: 61.4 mm
Head length [1]: 17.6 mm
Head width [1]: 13.7 mm
Heart weight [1]: 0.14 g
Liver weight [1]: 0.27 g
Pectoralis major depth [1]: 7.2 mm
Pectoralis major length [1]: 18.3 mm
Pectoralis major weight [1]: 0.81 g
Pectoralis major width [1]: 14.7 mm
Body weight [2]: 37.7 g
Chest circumference [2]: 59.5 mm
Chest length [2]: 18.6 mm
Chest width [2]: 15.5 mm
Crown-rump length [2]: 84.3 mm
Head circumference [2]: 53.2^a,c mm
Head length [2]: 17.7 mm
Head width [2]: 15.4 mm
Heart weight [2]: 0.22 g
Liver weight [2]: 0.64 g
Pectoralis major depth [2]: 2.9 mm
Pectoralis major length [2]: 17.2^b mm
Pectoralis major weight [2]: 0.17^b g
Pectoralis major width [2]: 5.5 mm
Body weight [3]: 46.9 g
Chest circumference [3]: 61.2 mm
Chest length [3]: 21.9 mm
Chest width [3]: 17.1^b mm
Crown-rump length [3]: 95.4 mm
Head circumference [3]: 55.7 mm
Head length [3]: 18.7^b mm
Head width [3]: 15.5 mm
Heart weight [3]: 0.31 g
Liver weight [3]: 0.84 g
Pectoralis major depth [3]: 3.1^a,b mm
Pectoralis major length [3]: 19.9^b mm
Pectoralis major weight [3]: 0.23^b g
Pectoralis major width [3]: 5.5^b mm
Body weight [4]: 14.2 g
Crown-rump length [4]: 61.1 mm
Head length [4]: 17.8 mm
Head width [4]: 13.7 mm
Heart weight [4]: 0.13 g
Liver weight [4]: 0.25 g
Pectoralis major depth [4]: 7.1 mm
Pectoralis major length [4]: 17.8 mm
Pectoralis major weight [4]: 0.82 g
Pectoralis major width [4]: 15.2 mm
Body weight [5]: 37.9 g
Chest circumference [5]: 60.1 mm
Chest length [5]: 18.5 mm
Chest width [5]: 16.3 mm
Crown-rump length [5]: 85.9 mm
Head circumference [5]: 54.8^b,c mm
Head length [5]: 17.4 mm
Head width [5]: 15.3 mm
Heart weight [5]: 0.22 g
Liver weight [5]: 0.64 g
Pectoralis major depth [5]: 2.7 mm
Pectoralis major length [5]: 17.7^b mm
Pectoralis major weight [5]: 0.18^b g
Pectoralis major width [5]: 5.7 mm
Body weight [6]: 46.1 g
Chest circumference [6]: 62.5 mm
Chest length [6]: 21.2 mm
Chest width [6]: 16.6^a,b mm
Crown-rump length [6]: 95.0 mm
Head circumference [6]: 55.6 mm
Head length [6]: 18.2^a,b mm
Head width [6]: 15.7 mm
Heart weight [6]: 0.31 g
Liver weight [6]: 0.90 g
Pectoralis major depth [6]: 3.3^b mm
Pectoralis major length [6]: 20.3^b mm
Pectoralis major weight [6]: 0.23^b g
Pectoralis major width [6]: 5.6^b mm
Body weight [7]: 13.9 g
Crown-rump length [7]: 61.0 mm
Head length [7]: 17.4 mm
Head width [7]: 14.0 mm
Heart weight [7]: 0.14 g
Liver weight [7]: 0.28 g
Pectoralis major depth [7]: 6.6 mm
Pectoralis major length [7]: 18.5 mm
Pectoralis major weight [7]: 0.84 g
Pectoralis major width [7]: 14.9 mm
Body weight [8]: 38.1 g
Chest circumference [8]: 61.5 mm
Chest length [8]: 18.3 mm
Chest width [8]: 15.4 mm
Crown-rump length [8]: 86.3 mm
Head circumference [8]: 55.0^b mm
Head length [8]: 17.6 mm
Head width [8]: 15.4 mm
Heart weight [8]: 0.23 g
Liver weight [8]: 0.63 g
Pectoralis major depth [8]: 2.9 mm
Pectoralis major length [8]: 17.6^b mm
Pectoralis major weight [8]: 0.17^b g
Pectoralis major width [8]: 5.6 mm
Body weight [9]: 46.6 g
Chest circumference [9]: 61.4 mm
Chest length [9]: 21.1 mm
Chest width [9]: 16.1^a mm
Crown-rump length [9]: 93.0 mm
Head circumference [9]: 53.9 mm
Head length [9]: 17.8^a mm
Head width [9]: 15.5 mm
Heart weight [9]: 0.32 g
Liver weight [9]: 0.96 g
Pectoralis major depth [9]: 3.0^a mm
Pectoralis major length [9]: 19.1^a,b mm
Pectoralis major weight [9]: 0.22^b g
Pectoralis major width [9]: 5.4^b mm
Increase of PMM length (minimum over NR doses) [10]: ≥ 13%
Increase of PMM weight (minimum over NR doses) [10]: ≥ 21%
Increase in PMM depth (at hatch): 18%
Increase in PMM length (at hatch): 13%
Increase in PMM width (at hatch): 17%
PMM weight advantage (at hatch): 35%
